Assay results published in the kinase profiling compilation of Christmann-Franck et al. (2016).
Values joined by “and” are separate entries in the source; they are usually repeats but may differ in a detail not shown here. Equal values may be shown once.

Key:
Experiment in all cases: KINOMEscan competition binding
Settings in all cases: compound 10.0 µM
[1] = molecular target: AKT2 (human) (UniProt P31751)
[2] = molecular target: AURKB (human) (UniProt Q96GD4)
[3] = molecular target: BRSK2 (human) (UniProt Q8IWQ3)
[4] = molecular target: CAMK4 (human) (UniProt Q16566)
[5] = molecular target: CASK (human) (UniProt O14936)
[6] = molecular target: CDC2L2 (human) (UniProt Q9UQ88)
[7] = molecular target: CDK11B (human) (UniProt P21127)
[8] = molecular target: CDK18 (human) (UniProt Q07002)
[9] = molecular target: CDK5 (human) (UniProt Q00535)
[10] = molecular target: CDKL2 (human) (UniProt Q92772)
[11] = molecular target: CSNK1G1 (human) (UniProt Q9HCP0)
[12] = molecular target: DAPK1 (human) (UniProt P53355)
[13] = molecular target: DAPK3 (human) (UniProt O43293)
[14] = molecular target: DMPK (human) (UniProt Q09013)
[15] = molecular target: DYRK1A (human) (UniProt Q13627)
[16] = molecular target: EPHB2 (human) (UniProt P29323)
[17] = molecular target: KIT (human) (UniProt P10721)
[18] = molecular target: LCK (human) (UniProt P06239)
[19] = molecular target: LRRK2 (human) (UniProt Q5S007)
[20] = molecular target: MAP3K15 (human) (UniProt Q6ZN16)
[21] = molecular target: MAPK12 (human) (UniProt P53778)
[22] = molecular target: MKNK1 (human) (UniProt Q9BUB5)
[23] = molecular target: NEK9 (human) (UniProt Q8TD19)
[24] = molecular target: NTRK3 (human) (UniProt Q16288)
[25] = molecular target: PAK2 (human) (UniProt Q13177)
[26] = molecular target: PDPK1 (human) (UniProt O15530)
[27] = molecular target: PIK3CB (human) (UniProt P42338)
[28] = molecular target: PIK3CG (human) (UniProt P48736)
[29] = molecular target: PIP5K1C (human) (UniProt O60331)
[30] = molecular target: PRKAA2 (human) (UniProt P54646)
[31] = molecular target: PRKD3 (human) (UniProt O94806)
[32] = tested on: RET (human), P07949 [V804L]
[33] = molecular target: RIPK4 (human) (UniProt P57078)
[34] = molecular target: RPS6KA3 KD1 (human) (UniProt P51812)
[35] = molecular target: RPS6KA5 KD1 (human) (UniProt O75582)
[36] = molecular target: RPS6KA6 KD1 (human) (UniProt Q9UK32)
[37] = molecular target: RPS6KB1 (human) (UniProt P23443)
[38] = molecular target: SGK110 (human) (UniProt P0C264)
[39] = molecular target: TEK (human) (UniProt Q02763)
[40] = molecular target: TGFBR1 (human) (UniProt P36897)

Sequence of KIT (human) (P10721 whole entry, looked up): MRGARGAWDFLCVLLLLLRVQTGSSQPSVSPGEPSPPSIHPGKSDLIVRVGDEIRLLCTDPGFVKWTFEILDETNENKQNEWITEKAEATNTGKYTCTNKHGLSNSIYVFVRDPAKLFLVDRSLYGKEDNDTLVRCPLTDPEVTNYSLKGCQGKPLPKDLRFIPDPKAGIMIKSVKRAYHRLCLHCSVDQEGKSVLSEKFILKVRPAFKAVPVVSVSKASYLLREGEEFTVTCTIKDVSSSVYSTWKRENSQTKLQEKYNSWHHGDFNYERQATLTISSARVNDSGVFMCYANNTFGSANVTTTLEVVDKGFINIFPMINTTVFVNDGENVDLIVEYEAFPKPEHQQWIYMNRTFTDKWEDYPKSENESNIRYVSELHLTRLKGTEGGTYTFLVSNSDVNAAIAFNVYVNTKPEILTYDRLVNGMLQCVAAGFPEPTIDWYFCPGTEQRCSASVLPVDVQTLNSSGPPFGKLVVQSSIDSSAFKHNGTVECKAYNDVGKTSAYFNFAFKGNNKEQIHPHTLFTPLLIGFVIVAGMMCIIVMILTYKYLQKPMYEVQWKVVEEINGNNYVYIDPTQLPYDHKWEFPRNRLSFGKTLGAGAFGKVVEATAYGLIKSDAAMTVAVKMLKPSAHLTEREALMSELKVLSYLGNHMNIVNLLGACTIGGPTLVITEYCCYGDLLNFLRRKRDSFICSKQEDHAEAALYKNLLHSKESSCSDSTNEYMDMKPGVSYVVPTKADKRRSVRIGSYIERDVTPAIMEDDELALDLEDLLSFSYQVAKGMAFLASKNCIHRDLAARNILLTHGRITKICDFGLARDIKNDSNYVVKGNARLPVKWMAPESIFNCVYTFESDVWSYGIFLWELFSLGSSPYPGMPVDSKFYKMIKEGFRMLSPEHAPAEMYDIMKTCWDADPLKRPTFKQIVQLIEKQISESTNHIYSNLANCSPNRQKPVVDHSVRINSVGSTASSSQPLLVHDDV
Sequence of DAPK3 (human) (O43293 whole entry, looked up): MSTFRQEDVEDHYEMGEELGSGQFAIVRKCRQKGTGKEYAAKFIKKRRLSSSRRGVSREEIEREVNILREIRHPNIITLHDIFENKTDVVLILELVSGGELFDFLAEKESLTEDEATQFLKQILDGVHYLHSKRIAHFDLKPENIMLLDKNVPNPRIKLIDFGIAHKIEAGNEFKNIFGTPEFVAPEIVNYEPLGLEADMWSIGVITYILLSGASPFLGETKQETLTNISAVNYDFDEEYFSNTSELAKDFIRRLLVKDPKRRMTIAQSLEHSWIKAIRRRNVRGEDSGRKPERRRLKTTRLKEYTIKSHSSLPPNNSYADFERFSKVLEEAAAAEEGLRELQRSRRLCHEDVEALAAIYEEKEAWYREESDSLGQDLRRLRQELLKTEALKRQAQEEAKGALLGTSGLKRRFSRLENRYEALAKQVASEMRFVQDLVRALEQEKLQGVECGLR
Sequence of RPS6KA3 KD1 (human) (P51812 whole entry, looked up): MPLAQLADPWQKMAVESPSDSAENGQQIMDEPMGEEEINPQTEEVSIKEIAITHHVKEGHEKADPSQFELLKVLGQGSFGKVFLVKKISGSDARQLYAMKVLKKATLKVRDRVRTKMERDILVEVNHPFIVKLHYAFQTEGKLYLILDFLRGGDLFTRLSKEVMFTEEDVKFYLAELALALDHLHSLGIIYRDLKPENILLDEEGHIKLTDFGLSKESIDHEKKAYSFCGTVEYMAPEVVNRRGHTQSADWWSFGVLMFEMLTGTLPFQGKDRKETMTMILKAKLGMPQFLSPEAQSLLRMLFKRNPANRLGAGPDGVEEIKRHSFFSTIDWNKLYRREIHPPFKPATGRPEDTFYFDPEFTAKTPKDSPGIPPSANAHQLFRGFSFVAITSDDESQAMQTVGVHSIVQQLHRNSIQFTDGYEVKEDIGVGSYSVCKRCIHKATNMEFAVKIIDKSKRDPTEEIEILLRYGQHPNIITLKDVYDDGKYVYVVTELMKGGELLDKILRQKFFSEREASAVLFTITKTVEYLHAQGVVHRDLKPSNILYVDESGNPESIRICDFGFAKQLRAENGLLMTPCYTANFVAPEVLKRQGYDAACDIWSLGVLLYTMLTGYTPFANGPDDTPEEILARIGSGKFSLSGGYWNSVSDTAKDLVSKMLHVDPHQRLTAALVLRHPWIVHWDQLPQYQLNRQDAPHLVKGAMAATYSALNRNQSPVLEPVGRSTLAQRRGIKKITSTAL
Sequence of CASK (human) (O14936 whole entry, looked up): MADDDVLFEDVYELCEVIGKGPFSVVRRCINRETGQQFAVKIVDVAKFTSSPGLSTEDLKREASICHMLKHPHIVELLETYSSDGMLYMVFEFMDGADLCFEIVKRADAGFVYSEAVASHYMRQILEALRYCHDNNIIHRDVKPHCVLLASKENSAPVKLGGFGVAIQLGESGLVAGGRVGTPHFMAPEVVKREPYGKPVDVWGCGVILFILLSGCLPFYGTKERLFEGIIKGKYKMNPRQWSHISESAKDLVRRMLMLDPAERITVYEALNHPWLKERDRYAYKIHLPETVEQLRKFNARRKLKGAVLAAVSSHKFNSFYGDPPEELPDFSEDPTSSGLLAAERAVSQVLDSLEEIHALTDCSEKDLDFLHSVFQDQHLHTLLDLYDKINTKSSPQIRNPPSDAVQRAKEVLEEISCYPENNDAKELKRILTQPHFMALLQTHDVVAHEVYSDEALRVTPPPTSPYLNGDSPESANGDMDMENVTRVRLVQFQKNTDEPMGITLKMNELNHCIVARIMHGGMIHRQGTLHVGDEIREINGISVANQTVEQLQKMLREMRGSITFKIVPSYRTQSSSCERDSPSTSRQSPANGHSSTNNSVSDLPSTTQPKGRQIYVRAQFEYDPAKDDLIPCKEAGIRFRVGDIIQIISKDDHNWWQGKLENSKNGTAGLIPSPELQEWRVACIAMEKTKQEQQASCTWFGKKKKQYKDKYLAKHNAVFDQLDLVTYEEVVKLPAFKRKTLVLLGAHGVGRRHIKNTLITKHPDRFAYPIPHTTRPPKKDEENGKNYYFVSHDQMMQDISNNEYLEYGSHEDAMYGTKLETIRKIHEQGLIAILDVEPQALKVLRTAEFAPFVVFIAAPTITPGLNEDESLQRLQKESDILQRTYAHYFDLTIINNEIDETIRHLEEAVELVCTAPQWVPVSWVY
Sequence of RPS6KA6 KD1 (human) (Q9UK32 whole entry, looked up): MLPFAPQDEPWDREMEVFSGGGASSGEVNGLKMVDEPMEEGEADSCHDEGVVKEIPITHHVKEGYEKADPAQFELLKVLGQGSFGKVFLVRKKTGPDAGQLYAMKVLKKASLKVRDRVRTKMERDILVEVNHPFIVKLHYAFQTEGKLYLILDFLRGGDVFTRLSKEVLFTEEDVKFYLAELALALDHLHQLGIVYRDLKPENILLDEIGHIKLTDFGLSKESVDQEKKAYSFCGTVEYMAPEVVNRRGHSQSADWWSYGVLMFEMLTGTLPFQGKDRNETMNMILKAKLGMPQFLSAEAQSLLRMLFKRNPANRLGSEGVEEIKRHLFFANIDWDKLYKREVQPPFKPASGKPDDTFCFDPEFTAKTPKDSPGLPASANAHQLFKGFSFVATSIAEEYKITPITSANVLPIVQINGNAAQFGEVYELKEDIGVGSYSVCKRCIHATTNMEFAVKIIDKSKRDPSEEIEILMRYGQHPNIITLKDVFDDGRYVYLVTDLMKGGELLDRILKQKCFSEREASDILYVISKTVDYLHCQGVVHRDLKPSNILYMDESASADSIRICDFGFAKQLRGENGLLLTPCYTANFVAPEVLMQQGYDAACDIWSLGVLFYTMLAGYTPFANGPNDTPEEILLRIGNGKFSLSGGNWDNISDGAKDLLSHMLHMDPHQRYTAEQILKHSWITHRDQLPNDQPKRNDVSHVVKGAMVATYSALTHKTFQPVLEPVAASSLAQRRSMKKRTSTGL
Sequence of TEK (human) (Q02763 whole entry, looked up): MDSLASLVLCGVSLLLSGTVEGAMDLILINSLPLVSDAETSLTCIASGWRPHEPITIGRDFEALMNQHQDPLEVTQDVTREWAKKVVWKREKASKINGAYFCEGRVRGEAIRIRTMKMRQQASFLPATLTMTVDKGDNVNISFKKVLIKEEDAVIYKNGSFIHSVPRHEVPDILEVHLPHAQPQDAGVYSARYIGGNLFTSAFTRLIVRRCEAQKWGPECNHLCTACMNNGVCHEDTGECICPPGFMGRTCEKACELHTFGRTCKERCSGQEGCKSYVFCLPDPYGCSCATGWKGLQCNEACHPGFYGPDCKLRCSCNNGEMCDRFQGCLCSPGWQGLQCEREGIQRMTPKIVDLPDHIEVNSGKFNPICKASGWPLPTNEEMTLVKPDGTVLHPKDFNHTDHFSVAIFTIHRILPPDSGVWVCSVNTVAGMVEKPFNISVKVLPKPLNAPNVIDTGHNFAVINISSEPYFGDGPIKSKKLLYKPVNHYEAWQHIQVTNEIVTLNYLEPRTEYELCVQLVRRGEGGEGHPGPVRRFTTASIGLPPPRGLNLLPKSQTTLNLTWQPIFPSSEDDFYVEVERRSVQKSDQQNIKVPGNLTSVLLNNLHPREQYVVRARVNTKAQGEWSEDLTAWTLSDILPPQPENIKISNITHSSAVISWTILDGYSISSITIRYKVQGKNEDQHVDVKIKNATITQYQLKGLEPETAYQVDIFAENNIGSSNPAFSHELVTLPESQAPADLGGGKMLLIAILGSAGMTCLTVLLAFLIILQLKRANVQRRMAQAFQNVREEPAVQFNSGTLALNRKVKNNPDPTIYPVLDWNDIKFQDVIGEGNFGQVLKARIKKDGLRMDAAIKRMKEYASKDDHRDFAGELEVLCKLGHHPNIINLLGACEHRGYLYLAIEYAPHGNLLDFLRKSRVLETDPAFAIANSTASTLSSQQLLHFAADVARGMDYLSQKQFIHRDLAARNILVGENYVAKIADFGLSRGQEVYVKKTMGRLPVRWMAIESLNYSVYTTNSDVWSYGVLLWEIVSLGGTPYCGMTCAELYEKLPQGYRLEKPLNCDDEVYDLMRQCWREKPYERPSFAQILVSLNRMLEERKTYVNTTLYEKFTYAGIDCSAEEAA

Compound: CCN1CCN(Cc2ccc(NC(=O)c3ccc(C)c(/C=C/c4cnc5[nH]ccc5c4OC)c3)cc2C(F)(F)F)CC1
- kinase still bound, per cent of control [1]: 48%
- kinase still bound, per cent of control [2]: 16%
- kinase still bound, per cent of control [3]: 100%
- kinase still bound, per cent of control [4]: 100%
- kinase still bound, per cent of control [5]: 77%
- kinase still bound, per cent of control [6]: 5.4%
- kinase still bound, per cent of control [7]: 8.5%
- kinase still bound, per cent of control [8]: 100%
- kinase still bound, per cent of control [9]: 100%
- kinase still bound, per cent of control [10]: 1.6%
- kinase still bound, per cent of control [11]: 98%
- kinase still bound, per cent of control [12]: 100%
- kinase still bound, per cent of control [13]: 99%
- kinase still bound, per cent of control [14]: 57%
- kinase still bound, per cent of control [15]: 63%
- kinase still bound, per cent of control [16]: 0%
- kinase still bound, per cent of control [17]: 0%
- kinase still bound, per cent of control [18]: 0.15%
- kinase still bound, per cent of control [19]: 12%
- kinase still bound, per cent of control [20]: 100%
- kinase still bound, per cent of control [21]: 40%
- kinase still bound, per cent of control [22]: 68%
- kinase still bound, per cent of control [23]: 8.4%
- kinase still bound, per cent of control [24]: 0.95%
- kinase still bound, per cent of control [25]: 100%
- kinase still bound, per cent of control [26]: 65%
- kinase still bound, per cent of control [27]: 100%
- kinase still bound, per cent of control [28]: 96%
- kinase still bound, per cent of control [29]: 84%
- kinase still bound, per cent of control [30]: 39%
- kinase still bound, per cent of control [31]: 52%
- kinase still bound, per cent of control [32]: 0.1%
- kinase still bound, per cent of control [33]: 56%
- kinase still bound, per cent of control [34]: 14%
- kinase still bound, per cent of control [35]: 34%
- kinase still bound, per cent of control [36]: 42%
- kinase still bound, per cent of control [37]: 9%
- kinase still bound, per cent of control [38]: 41%
- kinase still bound, per cent of control [39]: 0.1%
- kinase still bound, per cent of control [40]: 100%

Compound: O=c1[nH]c2ccccc2n1C1CCN(Cc2ccc(-c3nc4cc5[nH]cnc5cc4nc3-c3ccccc3)cc2)CC1
- kinase still bound, per cent of control [1]: 100%
- kinase still bound, per cent of control [2]: 91%
- kinase still bound, per cent of control [3]: 88%
- kinase still bound, per cent of control [4]: 100%
- kinase still bound, per cent of control [5]: 79%
- kinase still bound, per cent of control [6]: 100%
- kinase still bound, per cent of control [7]: 97%
- kinase still bound, per cent of control [8]: 97%
- kinase still bound, per cent of control [9]: 100%
- kinase still bound, per cent of control [10]: 77%
- kinase still bound, per cent of control [11]: 100%
- kinase still bound, per cent of control [12]: 100%
- kinase still bound, per cent of control [13]: 85%
- kinase still bound, per cent of control [14]: 98%
- kinase still bound, per cent of control [15]: 90%
- kinase still bound, per cent of control [16]: 72%
- kinase still bound, per cent of control [17]: 95% and 89%
- kinase still bound, per cent of control [18]: 72%
- kinase still bound, per cent of control [19]: 100%
- kinase still bound, per cent of control [20]: 100%
- kinase still bound, per cent of control [21]: 98%
- kinase still bound, per cent of control [22]: 77%
- kinase still bound, per cent of control [23]: 88%
- kinase still bound, per cent of control [24]: 98%
- kinase still bound, per cent of control [25]: 74%
- kinase still bound, per cent of control [26]: 93%
- kinase still bound, per cent of control [27]: 6.7%
- kinase still bound, per cent of control [28]: 25%
- kinase still bound, per cent of control [29]: 29%
- kinase still bound, per cent of control [30]: 95%
- kinase still bound, per cent of control [31]: 100%
- kinase still bound, per cent of control [32]: 85%
- kinase still bound, per cent of control [33]: 87%
- kinase still bound, per cent of control [34]: 67%
- kinase still bound, per cent of control [35]: 100%
- kinase still bound, per cent of control [36]: 75%
- kinase still bound, per cent of control [37]: 84%
- kinase still bound, per cent of control [38]: 81%
- kinase still bound, per cent of control [39]: 85%
- kinase still bound, per cent of control [40]: 100%
